How the values were obtained:
[1] = Sodium Influx Assay (In Vitro Assay): This sodium influx assay employs the use of the cell permeable, sodium sensitive dye ANG2 to quantify sodium ion influx through sodium channels which are maintained in an open state by use of sodium channel modulators. This high throughput sodium influx assay allows for rapid profiling and characterization of sodium channel blockers.In general, Trex HEK293 …
[2] = molecular target: Sodium channel protein type 8 subunit alpha (Homo sapiens, UniProt Q9UQD0); assay: as above
Sodium channel protein type 8 subunit alpha, sequence (Q9UQD0 whole entry): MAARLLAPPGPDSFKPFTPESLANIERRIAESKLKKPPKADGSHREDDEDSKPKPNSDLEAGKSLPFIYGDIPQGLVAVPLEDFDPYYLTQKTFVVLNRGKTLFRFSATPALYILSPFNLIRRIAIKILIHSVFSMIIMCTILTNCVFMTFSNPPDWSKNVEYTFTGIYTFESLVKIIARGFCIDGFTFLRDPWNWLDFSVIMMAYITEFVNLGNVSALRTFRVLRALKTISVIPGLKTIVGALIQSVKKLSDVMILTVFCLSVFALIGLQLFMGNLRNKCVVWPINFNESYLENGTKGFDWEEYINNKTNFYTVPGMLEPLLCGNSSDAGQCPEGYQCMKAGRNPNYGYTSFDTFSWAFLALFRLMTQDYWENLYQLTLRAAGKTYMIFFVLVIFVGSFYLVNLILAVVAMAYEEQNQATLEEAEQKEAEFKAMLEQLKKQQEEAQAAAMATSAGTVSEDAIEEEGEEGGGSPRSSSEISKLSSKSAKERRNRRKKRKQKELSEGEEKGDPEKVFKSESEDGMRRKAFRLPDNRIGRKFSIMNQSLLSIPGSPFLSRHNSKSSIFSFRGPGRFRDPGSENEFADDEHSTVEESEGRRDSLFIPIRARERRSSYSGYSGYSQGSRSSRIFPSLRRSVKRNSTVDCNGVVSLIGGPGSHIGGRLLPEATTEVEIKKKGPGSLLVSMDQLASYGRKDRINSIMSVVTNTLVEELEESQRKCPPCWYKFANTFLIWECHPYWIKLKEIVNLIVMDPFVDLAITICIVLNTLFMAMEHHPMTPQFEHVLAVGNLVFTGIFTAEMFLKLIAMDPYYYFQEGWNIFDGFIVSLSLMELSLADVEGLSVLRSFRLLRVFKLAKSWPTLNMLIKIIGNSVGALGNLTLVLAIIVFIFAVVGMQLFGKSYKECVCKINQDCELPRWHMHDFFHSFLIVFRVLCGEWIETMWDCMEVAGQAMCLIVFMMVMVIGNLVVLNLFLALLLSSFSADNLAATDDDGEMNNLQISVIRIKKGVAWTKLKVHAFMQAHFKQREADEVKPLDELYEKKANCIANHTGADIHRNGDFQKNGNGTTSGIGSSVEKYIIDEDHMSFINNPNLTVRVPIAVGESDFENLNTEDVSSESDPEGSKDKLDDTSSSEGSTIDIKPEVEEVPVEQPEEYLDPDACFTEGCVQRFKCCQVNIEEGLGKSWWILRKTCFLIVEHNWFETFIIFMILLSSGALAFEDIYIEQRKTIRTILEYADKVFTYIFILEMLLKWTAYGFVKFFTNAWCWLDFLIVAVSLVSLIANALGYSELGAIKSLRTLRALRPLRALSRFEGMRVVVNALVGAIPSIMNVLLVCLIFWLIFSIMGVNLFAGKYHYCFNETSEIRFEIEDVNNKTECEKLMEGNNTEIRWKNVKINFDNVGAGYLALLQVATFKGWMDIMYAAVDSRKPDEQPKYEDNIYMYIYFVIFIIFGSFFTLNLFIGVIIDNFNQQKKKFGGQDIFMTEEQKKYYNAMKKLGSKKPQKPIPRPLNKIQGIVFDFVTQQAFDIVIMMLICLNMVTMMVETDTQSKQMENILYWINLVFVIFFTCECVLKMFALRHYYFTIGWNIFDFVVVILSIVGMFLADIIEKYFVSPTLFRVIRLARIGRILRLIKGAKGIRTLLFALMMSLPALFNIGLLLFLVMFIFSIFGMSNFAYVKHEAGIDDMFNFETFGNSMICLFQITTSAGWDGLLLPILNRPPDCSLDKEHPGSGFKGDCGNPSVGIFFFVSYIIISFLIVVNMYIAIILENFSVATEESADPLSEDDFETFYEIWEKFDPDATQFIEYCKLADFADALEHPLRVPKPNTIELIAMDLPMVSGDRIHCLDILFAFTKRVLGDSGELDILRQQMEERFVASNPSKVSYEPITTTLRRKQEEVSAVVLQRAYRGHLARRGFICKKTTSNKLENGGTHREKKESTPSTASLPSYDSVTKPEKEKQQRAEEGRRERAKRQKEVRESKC

| Compound | IC50 [1] [µM] | IC50 [2] [µM] |
| --- | --- | --- |
| Cc1cc(S(=O)(=O)Nc2cccc(F)n2)ncc1NCc1c(F)cccc1CN1CCCC1 | 28.8 |  |
| Cc1nc(NCc2c(F)cccc2CN2CCCC2)ccc1S(=O)(=O)Nc1cscn1 | 6.18 |  |
| Cc1nc(S(=O)(=O)Nc2cscn2)c(F)cc1NCc1c(F)cccc1CN1C2CCC1CC2 |  | 0.037 |
